Test results published in US7012068B2, “Co-administration of a polysaccharide with a chemotherapeutic agent for the treatment of cancer” (Pro-Pharmaceuticals, Inc., priority 2001, dated 2006).
Several values for one entry are separate records, joined by “and”; a condition that tells them apart may be missing. Equal values may be shown once. Read-outs that look alike come from different tables or passages of the source.

Tests used:
[1] = system: COLO 205 human colon tumor; details: for Animals died, Total: over 8 weeks (incl. sacrificed); for Mean survival time: parametric models and stratified Kaplan-Meier estimation
[2] = system: mice; details: cited from earlier work
[3] = system: Albino Swiss mice; details: 17 days
[4] = system: Albino Swiss mice; details: single i.v. LD50 dose of Adriamycin with or without galactomannan, 14 days
Experimental: Acute systemic toxicity of the anti-tumor drug adriamycin in the presence and absence of mannan was evaluated in Albino Swiss mice. Mice were bred as described Example 1. Experimental procedures followed approved governmental guidelines as described in Example 1.
A single dose intravenous injection of the adriamycin alone or adriamycin together with galactomannan preparations was provided via the tail vein at a dose of 0.5 mL/mouse at the doses described below in (1)-(3) and observed for clinical signs immediately after injection, and daily for the duration of the study.
There were a total of 3 groups of 5 animals each. The groups were as follows: 1) 0.9% NaCl only, 2) Adriamycin only (1.1 mg/mL) and Adriamycin (1.1 mg/mL)+galactomannan (7.2mg/mL).
0.9% NaCl was used as a diluent. Animals were weighed prior to injection and at the end of the observation period. Animals surviving at the end of the study were sacrificed by carbon dioxide inhalation.
The ability of galactomannan to reduce the toxicity of LD50 dosed of Adriamycin was measured by presence or absence of mortality in animals injected with the combination of Adriamycin and the particular polysaccharide.

[5] = 1 week after treatment initiation, q4d × 3, 5-FU 75 mg/kg, GM 120 mg/kg
[6] = 1 week after treatment initiation, q4d × 3, 5-FU 75 mg/kg, GM 120 mg/kg, 10 mice per group
[7] = 2 weeks after treatment initiation, q4d × 3, 5-FU 75 mg/kg, GM 120 mg/kg
[8] = 2 weeks after treatment initiation, q4d × 3, 5-FU 75 mg/kg, GM 120 mg/kg, 10 mice per group
[9] = 3 weeks after treatment initiation, q4d × 3, 5-FU 75 mg/kg, GM 120 mg/kg
[10] = 3 weeks after treatment initiation, q4d × 3, 5-FU 75 mg/kg, GM 120 mg/kg, 10 mice per group
[11] = 4 weeks (28 days) after treatment initiation, q4d × 3, 5-FU 75 mg/kg, GM 120 mg/kg
[12] = 4 weeks after treatment initiation, q4d × 3, 5-FU 75 mg/kg, GM 120 mg/kg, 10 mice per group
[13] = 5 weeks (35 days) after treatment initiation, q4d × 3, 5-FU 75 mg/kg, GM 120 mg/kg
[14] = 5 weeks after treatment initiation, q4d × 3, 5-FU 75 mg/kg, GM 120 mg/kg, 10 mice per group
[15] = 6 weeks after treatment initiation (incl. sacrificed), q4d × 3, 5-FU 75 mg/kg, GM 120 mg/kg, 10 mice per group
[16] = 6 weeks after treatment initiation, q4d × 3, 5-FU 75 mg/kg, GM 120 mg/kg
[17] = 7 weeks after treatment initiation (incl. sacrificed), q4d × 3, 5-FU 75 mg/kg, GM 120 mg/kg, 10 mice per group
[18] = 7 weeks after treatment initiation, q4d × 3, 5-FU 75 mg/kg, GM 120 mg/kg
[19] = 8 weeks after treatment initiation (incl. sacrificed), q4d × 3, 5-FU 75 mg/kg, GM 120 mg/kg, 10 mice per group
[20] = Day 0 after treatment initiation, q4d × 3, 5-FU 75 mg/kg, GM 120 mg/kg
[21] = Day 3 after treatment initiation, q4d × 3, 5-FU 75 mg/kg, GM 120 mg/kg
[22] = i.v. q4d × 3, 5-FU 75 mg/kg, GM 120 mg/kg
[23] = i.v. q4d × 3, 5-FU 75 mg/kg, GM 120 mg/kg, 10 mice per group
[24] = q4d × 3, 5-FU 75 mg/kg, GM 120 mg/kg, 10 mice per group
[25] = q4d × 3, 5-FU 75 mg/kg, GM 120 mg/kg
[26] = GM 60 mg/kg q1d × 5, 10 mice per group

## O=c1[nH]cc(F)c(=O)[nH]1 [5-FU, 5-fluorouracil, reference compound]
[1]; [5]
  Median tumor weight: 198 mg
[1]; [6]
  Animals died: 1
[1]; [7]
  Median tumor weight: 245 mg
[1]; [8]
  Animals died: 2
[1]; [9]
  Median tumor weight: 352 mg
[1]; [10]
  Animals died: 0
[1]; [11]
  Median tumor weight: 527 mg
[1]; [12]
  Animals died: 0
[1]; 5-FU 375 mg/kg/dose q4d×3, alone or with galactomannan 120 mg/kg/dose
  deaths out of ten mice within 10 days after the treatment initiation: nine
[1]; [13]
  Median tumor weight: 990 mg
[1]; [14]
  Animals died: 1
[1]; [15]
  Animals died: 0
[1]; [16]
  Median tumor weight: 1345 mg
[1]; [17]
  Animals died: 0
[1]; [18]
  Median tumor weight: 1881 mg
[1]; [19]
  Animals died: 1
[1]; [20]
  Median tumor weight: 101 mg
[1]; [21]
  Median tumor weight: 135 mg
[1]; [22]
  Median days to 2× doubling of tumor weight: 23.7 days
[1]; [23]
  Animals with small tumors (20% and less) compared to median of untreated after 4-8 weeks of treatment: 1
[1]; out of ten mice, q4d×3, 5-FU 75 mg/kg/dose, galactomannan 120 mg/kg/dose
  treatment-related (nonspecific) deaths within two weeks: three
[1]; [24]
  Animals died, Total: 5
[1]; [25]
  Mean survival time: 23.7 days
[2]; 5-FU, single dose in mice, Physician's Desk Reference 48th Edition
  LD50: 340 mg/kg
[3]; single i.v. 5-FU 420 mg/kg with or without galactomannan
  death rate (mice dying / mice in group): 3/5

## COc1cccc2c1C(=O)c1c(O)c3c(c(O)c1C2=O)C[C@@](O)(C(=O)CO)C[C@@H]3O[C@H]1C[C@H](N)[C@H](O)[C@H](C)O1 [Adriamycin, doxorubicin]
[2]; Adriamycin, i.v. in mice, The Merck Index, 12th Edition
  LD50: 21.1 mg/kg
[4]
  mortality (mice died / mice in group): Three out of 5 and 3 out of 5
[4]; listed as adriamycin
  mortality (mice died / mice in group): 3/5

## galactomannan [GM]
[1]; 1 week after treatment initiation, GM 60 mg/kg q1d × 5
  Median tumor weight: 216 mg
[1]; 1 week after treatment initiation, GM 60 mg/kg q1d × 5, 10 mice
  Animals died: 1
[1]; [5]
  Median tumor weight: 258 mg
[1]; [6]
  Animals died: 0
[1]; 2 weeks after treatment initiation, GM 60 mg/kg q1d × 5
  Median tumor weight: 319 mg
[1]; 2 weeks after treatment initiation, GM 60 mg/kg q1d × 5, 10 mice
  Animals died: 0
[1]; [7]
  Median tumor weight: 320 mg
[1]; [8]
  Animals died: 0
[1]; 3 weeks after treatment initiation, GM 60 mg/kg q1d × 5
  Median tumor weight: 512 mg
[1]; 3 weeks after treatment initiation, GM 60 mg/kg q1d × 5, 10 mice
  Animals died: 0
[1]; [9]
  Median tumor weight: 629 mg
[1]; [10]
  Animals died: 0
[1]; [11]
  Median tumor weight: 959 mg
[1]; 4 weeks after treatment initiation, GM 60 mg/kg q1d × 5
  Median tumor weight: 690 mg
[1]; 4 weeks after treatment initiation, GM 60 mg/kg q1d × 5, 10 mice
  Animals died: 1
[1]; [12]
  Animals died: 0
[1]; [13]
  Median tumor weight: 1692 mg
[1]; 5 weeks after treatment initiation, GM 60 mg/kg q1d × 5
  Median tumor weight: 1116 mg
[1]; 5 weeks after treatment initiation, GM 60 mg/kg q1d × 5, 10 mice
  Animals died: 0
[1]; [14]
  Animals died: 0
[1]; [15]
  Animals died: 1
[1]; 6 weeks after treatment initiation, GM 60 mg/kg q1d × 5
  Median tumor weight: 1421 mg
[1]; 6 weeks after treatment initiation, GM 60 mg/kg q1d × 5, 10 mice
  Animals died: 0
[1]; [16]
  Median tumor weight: 1690 mg
[1]; 7 weeks after treatment initiation (incl. sacrificed), GM 60 mg/kg q1d × 5, 10 mice
  Animals died: 1
[1]; [17]
  Animals died: 0
[1]; 7 weeks after treatment initiation, GM 60 mg/kg q1d × 5
  Median tumor weight: 1152 mg
[1]; [18]
  Median tumor weight: 1764 mg
[1]; 8 weeks (56 days) after treatment initiation, GM 60 mg/kg q1d × 5
  Median tumor weight: 1152 mg
[1]; 8 weeks (56 days) after treatment initiation, q4d × 3, 5-FU 75 mg/kg, GM 120 mg/kg
  Median tumor weight: 1813 mg
[1]; [19]
  Animals died: 1
[1]; 8 weeks after treatment initiation, GM 60 mg/kg q1d × 5, 10 mice
  Animals died: 0
[1]; Day 0 after treatment initiation, GM 60 mg/kg q1d × 5
  Median tumor weight: 117 mg
[1]; [20]
  Median tumor weight: 100 mg
[1]; Day 3 after treatment initiation, GM 60 mg/kg q1d × 5
  Median tumor weight: 162 mg
[1]; [21]
  Median tumor weight: 162 mg
[1]; GM 60 mg/kg q1d × 5
  Median days to 2× doubling of tumor weight: 20.0 days
  Mean survival time: 18.1 days
[1]; [26]
  Animals with small tumors (20% and less) compared to median of untreated after 4-8 weeks of treatment: 0
  Tumor complete regression after 56 days of treatment: 0
[1]; [22]
  Median days to 2× doubling of tumor weight: 15.5 days
[1]; [23]
  Animals with small tumors (20% and less) compared to median of untreated after 4-8 weeks of treatment: 1
  Tumor complete regression after 56 days of treatment: 0
[1]; GM 60 mg/kg q1d × 5, 10 mice
  Animals died, Total: 3
[1]; [24]
  Animals died, Total: 2
[1]; [25]
  Mean survival time: 19.2 days
[3]; individual male mouse, single i.v. 0.5 mL/mouse: 5-FU 17 mg/mL, GM 4.73 mg/mL, 5-FU 17 mg/mL + GM 9.06 mg/mL
  Signs of Toxicity (summary of clinical observations): None
